Measurements as given in US20110229534A1, “Non-Irritating Oral Care Formulations” (The Trustees of Columbia University In The City Of New York, priority 2006, published 2011).
Read-outs that look alike come from different tables or passages of the source.

Legend:
[1] = oral administration; cited from earlier work
GCF-IL-1 beta = settings: used as an oral rinse; cited from earlier work
[2] = oral rinse containing ketorolac; small number of patients; cited from earlier work
Streptococcus mutants = settings: for Growth: CFU/ml: subcultured on TSA, 24 hours
Procedure: A culture of Streptococcus mutants (causative bacteria for dental plaque) was grown in brain/heart infusion (BHI). Tubes containing 5 ml of BHI were inoculated with 0.1 ml of 10^5 CFU bacteria/ml and incubated anaerobically at 37° C. After 24 hours the turbidity was measured; the tubes were subcultured on TSA and incubated for 24 hours and colony counts were measured.

[3] = cited from earlier work

For O=C(c1ccccc1)c1ccc2n1CCC2C(=O)O (stereo not shown) [ketorolac], the “gastric mucosal side effect” value [1] is given as “gastric mucosal ulceration”, the “effect on GCF-IL-1 beta in the oral cavity” value (GCF-IL-1 beta) is given as “reduce GCF-IL-1 beta” and the “oral mucosal side effect” value [2] is given as “ulceration in the oral mucosa was observed”.
In the case of Zinc salicylate, the “anti-Streptococcus activity (conclusion)” value (Streptococcus mutants) is reported as “exhibit anti-Streptococcus activity”, the “Growth: CFU/ml” value (Streptococcus mutants; 25 ug/ml) is reported as >10^8 CFU/ml and the “Growth: CFU/ml” value (Streptococcus mutants; 50 ug/ml) is reported as >10^6 CFU/ml. For the same compound, the “Growth: CFU/ml” value (Streptococcus mutants; 100 ug/ml) was 10 CFU/ml and the “Growth: CFU/ml” value (Streptococcus mutants; 200 ug/ml) was 0 CFU/ml.
In the case of zinc glycerate, the “water solubility (in words)” value [3] is given as “moderately water soluble”.
In the case of zinc picolinate, the “water solubility (in words)” value [3] is given as “moderately water soluble”.
